Test system: Phenylquinone-Induced Writhing in Mice
Assay: Inhibition of Phenylquinone-Induced Writhing in Mice (PQW)
Type: in vivo, mice (male CD-1 Charles River)
Method: Compounds I of the present invention are also useful as analgesic agents due to their ability to alleviate pain in mammals. […] Exptl. Biol. Med., 95, 729 (1957)].
Inhibition of Phenylquinone-Induced Writhing in Mice (PQW)
A 0.125% concentration of phenyl-p-benzoquinone in a 5% aqueous solution of ethyl alcohol is administered to mice (10 mL/kg, ip). This produces a characteristic "writhe" which is defined as an inward rotation of one or more feet with twisting and turning of the trunk, drawing in of the abdominal wall, lordosis, and arching of the back. A total of 28 male CD-1 Charles River mice (18-30 g) are employed for a time-response. Animals receive food and water ad libitum during their stay in the animal quarters prior to testing. Compounds are tested at 20 mg/kg, sc and are prepared with distilled water, and if insoluble one drop of Tween-80, a surfactant, is added. Compounds are administered in a dosage volume of 10 mL/kg.
Twenty mice (five per group) are administered the test compound at various pretreat time (e.g., 15, 30, 45, and 60 min) prior to phenylquinone injection. Control animals (two per group) receive an equal volume of vehicle. After the administration of phenylquinone, the mice are placed separately into 1-L beakers, and 5 min are allowed to elapse. The mice are then observed for a period of 10 min, and the number of writhes is recorded for each animal. The formula for computing percent inhibition is [formula]
The time period with the maximum percent of inhibition is considered the peak time. A dose-response is reserved for interesting compounds or those which inhibit writhing by 70% or more. A dose-response is run in the same manner as a time-response except 10 animals per group are tested at the peak time of drug activity. Fifty animals, divided among four drug groups and one vehicle control group, are employed. The mice are normally given four doses of drug, each twice the amount of the preceding dose. An ED50 is calculated by a computer linear regression analysis.

| SMILES | % Inhibition of Writhing @ 20 mg/kg, s.c. | % Inhibition of Writhing (at the dose of 1.3 mg/kg, s.c. (footnote *)) |
| --- | --- | --- |
| CN1CCC(C2Oc3cnccc3N(C)n3cccc32)CC1 (stereo not drawn) [5-Methyl-10-(1-methyl-4-piperidinyl)-5H,10H-pyrido[3,4-b]pyrrolo[1,2-e][1,4,5]oxadiazepine] | 47% | – |
| CN1c2ccncc2OCc2cccn21 [5-Methyl-5H,10H-pyrido[3,4-b]pyrrolo[1,2-e][1,4,5]-oxadiazepine] | 58% | – |
| CC(C)=CCN1CCC2(C)c3cc(O)ccc3CC1C2C (stereo not drawn) [Pentazocine, reference compound] | – | 50% |
